This note sets out measurements from ChEMBL document CHEMBL3217454, “Structureactivity relationship studies using peptide arrays: the example of HIV-1 Revintegrase interaction” (Medchemcomm, 2013).

Square brackets hold non-standard residues; d marks the D form. Peptide text beside a SMILES is read from it. NMeF = CN[C@@H](Cc1ccccc1)C(=O)O; NMeT = CN[C@H](C(=O)O)[C@@H](C)O; NMeK = CN[C@@H](CCCCN)C(=O)O; NMeV = CN[C@H](C(=O)O)C(C)C; NMeS = CN[C@@H](CO)C(=O)O; NMeA = CN[C@@H](C)C(=O)O; Sar = CNCC(=O)O

Experiment [1] has as its target Human immunodeficiency virus type 1 integrase (Human immunodeficiency virus 1) (UniProt Q7ZJM1). Kind of experiment: Binding affinity to HIV-1 integrase measured after overnight incubation by chemiluminescence analysis relative to IN 118-128. The arrangement: concentration or dose not given beside the values.
Experiment [2] concerns Human immunodeficiency virus 1. Kind of experiment: Binding affinity to HLT-tagged HIV-1 Rev measured after overnight incubation by chemiluminescence analysis relative to IN 118-128. The arrangement: concentration or dose not given beside the values.

Sequence of Human immunodeficiency virus type 1 integrase (Human immunodeficiency virus 1) (Q7ZJM1 as listed by the source): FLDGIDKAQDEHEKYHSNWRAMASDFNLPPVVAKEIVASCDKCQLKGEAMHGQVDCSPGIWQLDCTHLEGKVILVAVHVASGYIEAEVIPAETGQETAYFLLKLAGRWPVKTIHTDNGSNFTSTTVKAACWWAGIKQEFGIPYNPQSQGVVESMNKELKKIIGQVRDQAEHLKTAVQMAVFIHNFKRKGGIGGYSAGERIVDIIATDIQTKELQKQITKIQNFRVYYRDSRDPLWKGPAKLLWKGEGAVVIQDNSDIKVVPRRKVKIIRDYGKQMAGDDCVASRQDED

As to `C[C@H](NC(=O)[C@H](CCCCN)NC(=O)[C@H](C)NC(=O)[C@@H](NC(=O)[C@@H](NC(=O)[C@H](CO)NC(=O)[C@@H](NC(=O)[C@H](Cc1ccccc1)NC(=O)[C@H](CC(N)=O)NC(=O)[C@H](CO)NC(=O)CN)[C@@H](C)O)[C@@H](C)O)[C@@H](C)O)C(=O)O` (H-GSNFTSTTAKA-OH), the values for the Activity in experiment [1] and in experiment [2] were 129% and 64%, respectively.

For `CC(C)[C@H](NC(=O)[C@@H](NC(=O)[C@@H](NC(=O)[C@H](CO)NC(=O)[C@@H](NC(=O)[C@H](Cc1ccccc1)NC(=O)[C@H](CC(N)=O)NC(=O)[C@H](CO)NC(=O)CN)[C@@H](C)O)[C@@H](C)O)[C@@H](C)O)C(=O)O` (H-GSNFTSTTV-OH), the Activity in experiment [1] stood at 27%; in experiment [2] it was 0%.

`CC(C)[C@H](NC(=O)[C@@H](NC(=O)[C@@H](NC(=O)[C@H](CO)NC(=O)[C@@H](NC(=O)[C@H](Cc1ccccc1)NC(=O)[C@H](CC(N)=O)NC(=O)[C@H](CO)NC(=O)CN)[C@@H](C)O)[C@@H](C)O)[C@@H](C)O)C(=O)N[C@@H](C)C(=O)N[C@@H](C)C(=O)O` (H-GSNFTSTTVAA-OH): the Activity in experiment [1] came out at 85%; in experiment [2] it was 0%.

As to `CC(C)[C@H](NC(=O)[C@@H](NC(=O)[C@@H](NC(=O)[C@H](CO)NC(=O)[C@@H](NC(=O)[C@H](Cc1ccccc1)NC(=O)[C@H](CC(N)=O)NC(=O)[C@H](CO)NC(=O)CN)[C@@H](C)O)[C@@H](C)O)[C@@H](C)O)C(=O)N[C@@H](CCCCN)C(=O)O` (H-GSNFTSTTVK-OH), the Activity in experiment [1] was 242%; in experiment [2], 201%.

As to `CC(C)[C@H](NC(=O)[C@@H](NC(=O)[C@@H](NC(=O)[C@H](CO)NC(=O)[C@@H](NC(=O)[C@H](Cc1ccccc1)NC(=O)[C@H](CC(N)=O)NC(=O)[C@H](CO)NC(=O)CN)[C@@H](C)O)[C@@H](C)O)[C@@H](C)O)C(=O)N[C@@H](CCCCN)C(=O)N(C)[C@@H](C)C(=O)O` (H-GSNFTSTTVK[NMeA]-OH), the figures for the Activity in experiment [1] and in experiment [2] were 136% and 141%, respectively.

For `CC(C)[C@H](NC(=O)[C@@H](NC(=O)[C@@H](NC(=O)[C@H](CO)NC(=O)[C@@H](NC(=O)[C@H](Cc1ccccc1)NC(=O)[C@H](CC(N)=O)NC(=O)[C@H](CO)NC(=O)CN)[C@@H](C)O)[C@@H](C)O)[C@@H](C)O)C(=O)N(C)[C@@H](CCCCN)C(=O)N[C@@H](C)C(=O)O` (H-GSNFTSTTV[NMeK]A-OH), the Activity was found to be 185% in experiment [1] and 191% in experiment [2].

Consider `CC(C)[C@@H](C(=O)N[C@@H](CCCCN)C(=O)N[C@@H](C)C(=O)O)N(C)C(=O)[C@@H](NC(=O)[C@@H](NC(=O)[C@H](CO)NC(=O)[C@@H](NC(=O)[C@H](Cc1ccccc1)NC(=O)[C@H](CC(N)=O)NC(=O)[C@H](CO)NC(=O)CN)[C@@H](C)O)[C@@H](C)O)[C@@H](C)O` (H-GSNFTSTT[NMeV]KA-OH), for which the Activity in experiment [1] was determined as 273%; in experiment [2] it was 215%.

With `CC(C)[C@H](NC(=O)[C@H]([C@@H](C)O)N(C)C(=O)[C@@H](NC(=O)[C@H](CO)NC(=O)[C@@H](NC(=O)[C@H](Cc1ccccc1)NC(=O)[C@H](CC(N)=O)NC(=O)[C@H](CO)NC(=O)CN)[C@@H](C)O)[C@@H](C)O)C(=O)N[C@@H](CCCCN)C(=O)N[C@@H](C)C(=O)O` (H-GSNFTST[NMeT]VKA-OH), the Activity in experiment [1] turned out to be 265%; in experiment [2] it was 168%.

Regarding `CC(C)[C@H](NC(=O)[C@@H](NC(=O)[C@H]([C@@H](C)O)N(C)C(=O)[C@H](CO)NC(=O)[C@@H](NC(=O)[C@H](Cc1ccccc1)NC(=O)[C@H](CC(N)=O)NC(=O)[C@H](CO)NC(=O)CN)[C@@H](C)O)[C@@H](C)O)C(=O)N[C@@H](CCCCN)C(=O)N[C@@H](C)C(=O)O` (H-GSNFTS[NMeT]TVKA-OH), the figures for the Activity in experiment [1] and in experiment [2] were 249% and 197%, respectively.

For the molecule `CC(C)[C@H](NC(=O)[C@@H](NC(=O)[C@@H](NC(=O)[C@H](CO)N(C)C(=O)[C@@H](NC(=O)[C@H](Cc1ccccc1)NC(=O)[C@H](CC(N)=O)NC(=O)[C@H](CO)NC(=O)CN)[C@@H](C)O)[C@@H](C)O)[C@@H](C)O)C(=O)N[C@@H](CCCCN)C(=O)N[C@@H](C)C(=O)O` (H-GSNFT[NMeS]TTVKA-OH), the values for the Activity in experiment [1] and in experiment [2] were 312% and 279%, respectively.

On to `CC(C)[C@H](NC(=O)[C@@H](NC(=O)[C@@H](NC(=O)[C@H](CO)NC(=O)[C@H]([C@@H](C)O)N(C)C(=O)[C@H](Cc1ccccc1)NC(=O)[C@H](CC(N)=O)NC(=O)[C@H](CO)NC(=O)CN)[C@@H](C)O)[C@@H](C)O)C(=O)N[C@@H](CCCCN)C(=O)N[C@@H](C)C(=O)O` (H-GSNF[NMeT]STTVKA-OH), for which the values for the Activity in experiment [1] and in experiment [2] were 165% and 200%, respectively.

On to `CC(C)[C@H](NC(=O)[C@@H](NC(=O)[C@@H](NC(=O)[C@H](CO)NC(=O)[C@@H](NC(=O)[C@H](Cc1ccccc1)N(C)C(=O)[C@H](CC(N)=O)NC(=O)[C@H](CO)NC(=O)CN)[C@@H](C)O)[C@@H](C)O)[C@@H](C)O)C(=O)N[C@@H](CCCCN)C(=O)N[C@@H](C)C(=O)O` (H-GSN[NMeF]TSTTVKA-OH), for which the Activity was determined as 195% in experiment [1] and 177% in experiment [2].

`CC(C)[C@H](NC(=O)[C@@H](NC(=O)[C@@H](NC(=O)[C@H](CO)NC(=O)[C@@H](NC(=O)[C@H](Cc1ccccc1)NC(=O)[C@H](CC(N)=O)NC(=O)[C@H](CO)N(C)C(=O)CN)[C@@H](C)O)[C@@H](C)O)[C@@H](C)O)C(=O)N[C@@H](CCCCN)C(=O)N[C@@H](C)C(=O)O` (H-G[NMeS]NFTSTTVKA-OH): the Activity was 182% in experiment [1] and 293% in experiment [2].

On to `CC(C)[C@H](NC(=O)[C@@H](NC(=O)[C@@H](NC(=O)[C@H](CO)NC(=O)[C@@H](NC(=O)[C@H](Cc1ccccc1)NC(=O)[C@@H](N)CC(N)=O)[C@@H](C)O)[C@@H](C)O)[C@@H](C)O)C(=O)N[C@@H](CCCCN)C(=O)N[C@@H](C)C(=O)O` (H-NFTSTTVKA-OH), for which the Activity in experiment [1] was found to be 119%; in experiment [2], 152%.

On to `CC(C)[C@H](NC(=O)[C@@H](NC(=O)[C@@H](NC(=O)[C@H](CO)NC(=O)[C@@H](NC(=O)[C@H](Cc1ccccc1)NC(=O)[C@H](CC(N)=O)NC(=O)[C@@H](N)CO)[C@@H](C)O)[C@@H](C)O)[C@@H](C)O)C(=O)N[C@@H](CCCCN)C(=O)N[C@@H](C)C(=O)O` (H-SNFTSTTVKA-OH), for which the Activity in experiment [1] came to 207%; in experiment [2], 177%.

With `CC(C)[C@H](NC(=O)[C@@H](NC(=O)[C@@H](NC(=O)[C@@H](N)CO)[C@@H](C)O)[C@@H](C)O)C(=O)N[C@@H](CCCCN)C(=O)N[C@@H](C)C(=O)O` (H-STTVKA-OH), the Activity in experiment [1] was 144%; in experiment [2], 187%.

With `CC(C)[C@H](NC(=O)[C@@H](NC(=O)[C@@H](NC(=O)[C@H](CO)NC(=O)[C@@H](N)[C@@H](C)O)[C@@H](C)O)[C@@H](C)O)C(=O)N[C@@H](CCCCN)C(=O)N[C@@H](C)C(=O)O` (H-TSTTVKA-OH), the values for the Activity in experiment [1] and in experiment [2] were 135% and 111%, respectively.

For `CNCC(=O)N[C@@H](CO)C(=O)N[C@@H](CC(N)=O)C(=O)N[C@@H](Cc1ccccc1)C(=O)N[C@H](C(=O)N[C@@H](CO)C(=O)N[C@H](C(=O)N[C@H](C(=O)N[C@H](C(=O)N[C@@H](CCCCN)C(=O)N[C@@H](C)C(=O)O)C(C)C)[C@@H](C)O)[C@@H](C)O)[C@@H](C)O` (H-[Sar]SNFTSTTVKA-OH), the values for the Activity in experiment [1] and in experiment [2] were 181% and 294%, respectively.
